Assay results published in patent publication US12303592B2, “Formulations for parenteral delivery of compounds and uses thereof” (Wyeth, LLC, priority 2006, dated 2025).

Key:
[1] = for inhibition of formation of 2′,2′ bis methylnaltrexone degradant / inhibition of formation of 7-dihydroxy-methylnaltrexone degradant: in presence of iron, 40° C. and room temperature
Description: FIG. 1A and FIG. 1B: Effect of CaEDTA and NaEDTA on the formation of 2′,2-bis methylnaltrexone in the presence of iron at 40° C. (FIG. 1A) and room temperature, […] (FIG. 1B).
FIGS. 2A, 2B, 2C, and 2D: Effect of CaEDTA on the formation of 7-dihydroxy methylnaltrexone in solutions. The effect of CaEDTA and NaEDTA on the formation of 7-dihydroxy methylnaltrexone in the presence of iron at 40° C. (FIG. 2A) and room temperature, 25° (FIG. 2B) was assessed. […] The effect of CaEDTA on the formation of 7-dihydroxy methylnaltrexone in solution following one month storage at room temperature (FIG. 2C) and at 40° C. (FIG. 2D) was assessed. The presence of CaEDTA reduced formation of 7-dihydroxy methylnaltrexone at either temperature.
FIG. 3A and FIG. 3B: Effect of CaEDTA in methylnaltrexone solution on the formation of a methylnaltrexone degradant having an RRT 0.79 (“the 0.79 degradant”). The effect of CaEDTA and NaEDTA on the formation of the 0.79 degradant at room temperature, 25° (FIG. 3A) and at 40° C. (FIG. 3B) was assessed. Calcium EDTA was not effective at inhibiting formation of the 0.79 degradant, and may increase levels of degradant formation.
Inhibition of metal-catalyzed formation of 2,2′bis methylnaltrexone. […] We have found by HPLC analysis (Method B) the 2,2′bis methylnaltrexone degradant results in a peak having an RRT about 1.55. Fe^3+ is an ion that can get into the liquid formulation from several sources. For example, it can be leached from stainless steel process equipment, syringe needles, stoppers and amber vials. EDTA, as a metal chelating agent sequesters the available Fe^3+ in the solution, thereby preventing catalysis of the undesirable metal-catalyzed reactions. Methylnaltrexone solutions were prepared in 0.9% NaCl, in the presence of iron and various concentrations of sodium EDTA and calcium EDTA. Used throughout the experiments sodium EDTA is EDTA disodium dihydrate, and the terms sodium EDTA, EDTA disodium dihydrate, and NaEDTA are used interchangeably throughout. Used throughout the experiments calcium EDTA is calcium EDTA disodium, and the terms calcium EDTA, calcium EDTA disodium, and CaEDTA are used interchangeably throughout. Formation of 2,2′bis methylnaltrexone was assessed at room temperature as well as at 40° C. Addition of either sodium or calcium EDTA solution was effective at inhibiting formation of the 2,2′bis methylnaltrexone degradant.
We have found Ca^2+ chelating agent provides additional inhibition of formation of a 7-dihydroxy-methylnaltrexone degradant as compared to Na^2+ chelating agent. Methylnaltrexone solutions were prepared in 0.9% NaCl, in the presence of iron and various concentrations of sodium EDTA and calcium EDTA. Formation of 7-dihydroxy-methylnaltrexone was assessed at room temperature as well as at 40° C.

[2] = system: opioid receptors; details: found in U.S. Ser. No. 11/441,395 and 11/441,452; cited from earlier work

Row | Compound | inhibition of formation of 2′,2′ bis methylnaltrexone degradant [1] | inhibition of formation of 7-dihydroxy-methylnaltrexone degradant [1] | inhibition of formation of the 0.79 degradant ([1]; room temperature and 40° C.) | opioid activity [2]
1 | O.O.O=C([O-])CN(CCN(CC(=O)[O-])CC(=O)O)CC(=O)O.[Na+].[Na+] [sodium EDTA, EDTA disodium dihydrate] | effective inhibitors | may even increase levels | – | –
2 | O=C([O-])CN(CCN(CC(=O)[O-])CC(=O)[O-])CC(=O)[O-].[Ca+2].[Na+].[Na+] [calcium EDTA, calcium EDTA disodium] | effective inhibitors | effective inhibitor | not effective | –
3 | C[N+]1(CC2CC2)CCC23c4c5ccc(O)c4OC2C(=O)CCC3(O)C1C5 (single isomer, unassigned) [R—N isomer of methylnaltrexone] | – | – | – | opioid antagonist
4 | C[N@@+]1(CC2CC2)CC[C@]23c4c5ccc(O)c4OC2C(=O)CCC3(O)C1C5 (single isomer, unassigned) [S—N isomer of methylnaltrexone] | – | – | – | opioid agonist
